Experimental data: ChEMBL document CHEMBL4219204, “Structure-based design and discovery of potent and selective KDM5 inhibitors” (Bioorg Med Chem Lett, 2018)

Tests used:
[1] = target: Lysine-specific histone demethylase 1A (Homo sapiens, UniProt O60341); test: Inhibition of KDM1A (unknown origin)
[2] = target: T1, Lysine-specific demethylase 4B (Homo sapiens, UniProt O94953); test: Inhibition of KDM4B (unknown origin)
T1 sequence (O94953 whole entry): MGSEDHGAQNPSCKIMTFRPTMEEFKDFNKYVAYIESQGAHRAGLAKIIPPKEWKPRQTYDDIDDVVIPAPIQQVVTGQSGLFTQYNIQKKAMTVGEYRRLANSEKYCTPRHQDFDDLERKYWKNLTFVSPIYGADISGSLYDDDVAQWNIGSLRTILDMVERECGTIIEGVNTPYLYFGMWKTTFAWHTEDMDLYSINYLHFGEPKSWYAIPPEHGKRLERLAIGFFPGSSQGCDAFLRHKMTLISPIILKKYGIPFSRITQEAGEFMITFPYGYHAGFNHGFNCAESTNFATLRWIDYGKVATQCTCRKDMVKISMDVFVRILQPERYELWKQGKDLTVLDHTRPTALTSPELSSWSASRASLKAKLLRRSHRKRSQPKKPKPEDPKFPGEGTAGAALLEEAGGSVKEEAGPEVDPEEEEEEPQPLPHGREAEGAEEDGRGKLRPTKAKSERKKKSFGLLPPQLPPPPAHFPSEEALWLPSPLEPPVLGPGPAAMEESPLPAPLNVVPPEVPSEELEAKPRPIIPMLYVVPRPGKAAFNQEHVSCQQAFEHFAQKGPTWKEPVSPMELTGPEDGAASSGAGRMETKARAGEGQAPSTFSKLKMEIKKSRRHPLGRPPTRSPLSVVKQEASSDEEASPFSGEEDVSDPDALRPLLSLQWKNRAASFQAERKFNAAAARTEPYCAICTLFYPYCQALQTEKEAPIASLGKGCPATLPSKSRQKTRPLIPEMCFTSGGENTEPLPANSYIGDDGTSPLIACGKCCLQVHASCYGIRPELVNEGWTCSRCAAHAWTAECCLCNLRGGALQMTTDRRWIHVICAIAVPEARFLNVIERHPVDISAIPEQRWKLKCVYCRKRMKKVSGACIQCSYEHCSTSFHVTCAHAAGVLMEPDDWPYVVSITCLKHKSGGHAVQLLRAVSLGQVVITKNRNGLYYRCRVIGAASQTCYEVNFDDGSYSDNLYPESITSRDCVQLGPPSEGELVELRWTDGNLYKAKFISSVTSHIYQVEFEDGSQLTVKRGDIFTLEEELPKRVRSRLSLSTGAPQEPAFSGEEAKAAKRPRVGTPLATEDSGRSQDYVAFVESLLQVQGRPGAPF

[3] = target: T2, Lysine-specific demethylase 4D (Homo sapiens, UniProt Q6B0I6); test: Inhibition of KDM4D (unknown origin)
T2 sequence (Q6B0I6 whole entry): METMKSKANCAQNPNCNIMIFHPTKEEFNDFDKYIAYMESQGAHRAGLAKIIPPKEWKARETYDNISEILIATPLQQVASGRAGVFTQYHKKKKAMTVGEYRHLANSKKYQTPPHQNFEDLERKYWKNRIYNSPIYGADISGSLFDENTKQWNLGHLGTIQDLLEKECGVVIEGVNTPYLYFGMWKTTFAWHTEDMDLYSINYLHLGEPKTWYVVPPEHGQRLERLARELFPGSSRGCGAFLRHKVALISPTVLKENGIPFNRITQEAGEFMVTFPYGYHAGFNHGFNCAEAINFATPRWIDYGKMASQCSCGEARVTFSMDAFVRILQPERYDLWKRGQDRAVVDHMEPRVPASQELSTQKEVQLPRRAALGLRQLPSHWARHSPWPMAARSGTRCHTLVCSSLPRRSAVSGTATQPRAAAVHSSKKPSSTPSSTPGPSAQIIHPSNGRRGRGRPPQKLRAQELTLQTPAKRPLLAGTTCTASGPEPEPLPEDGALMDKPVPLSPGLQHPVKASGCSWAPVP

[4] = target: T3, Lysine-specific demethylase 4E (Homo sapiens, UniProt B2RXH2); test: Inhibition of KDM4E (unknown origin)
T3 sequence (B2RXH2 whole entry): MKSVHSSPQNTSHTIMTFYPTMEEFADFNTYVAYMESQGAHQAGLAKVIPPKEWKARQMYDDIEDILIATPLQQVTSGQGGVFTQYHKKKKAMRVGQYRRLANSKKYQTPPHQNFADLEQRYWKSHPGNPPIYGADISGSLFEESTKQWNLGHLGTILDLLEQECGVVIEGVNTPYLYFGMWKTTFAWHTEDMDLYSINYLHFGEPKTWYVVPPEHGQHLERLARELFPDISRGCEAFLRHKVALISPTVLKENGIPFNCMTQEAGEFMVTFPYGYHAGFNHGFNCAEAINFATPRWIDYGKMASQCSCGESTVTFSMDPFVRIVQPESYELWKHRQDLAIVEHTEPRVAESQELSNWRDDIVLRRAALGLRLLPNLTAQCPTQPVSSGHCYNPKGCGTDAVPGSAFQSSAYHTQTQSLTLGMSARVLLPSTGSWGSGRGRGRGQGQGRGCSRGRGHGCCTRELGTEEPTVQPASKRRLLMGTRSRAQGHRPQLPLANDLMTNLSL

[5] = Clearance in CD-1 mouse at 5 mg/kg, iv; type: ADME, organism-based; conditions: in vivo
[6] = Volume of distribution in CD-1 mouse at 5 mg/kg, iv; type: ADME, organism-based; conditions: in vivo

IC50 [1]: > 40000 nM
IC50 [2]: 170 nM
IC50 [3]: 110 nM
IC50 [4]: 160 nM
clearance [5]: 2.1 mL/min/kg
Vd [6]: 0.16 L/kg
Compound: Cc1cc(Cl)ccc1COc1ccnn1-c1cc(C(=O)O)ccn1
